Experimental data as given in US12384751B2, “Allosteric activators of the ALPHA1A-adrenergic receptor” (The Cleveland Clinic Foundation, priority 2019, dated 2025).
Entries after “also recorded” stand apart in the source; their conditions may differ.

How the values were obtained:
[1] = Blood pressure in APP (London Mutation) AD mice and WT controls; type: in vivo, mouse; conditions: 40 mg/kg/bw daily
[2] = molecular target: T1, α1A-AR (Homo sapiens, UniProt P35348); experiment: Rapid cAMP screening assay for PAM effects (norepinephrine constant at Emax); type: cell-based, human and mouse; conditions: norepinephrine constant at 10^−4M; range over cell lines (fibroblasts, neuroblastoma, cardiomyocytes)
T1 sequence (P35348 1-466): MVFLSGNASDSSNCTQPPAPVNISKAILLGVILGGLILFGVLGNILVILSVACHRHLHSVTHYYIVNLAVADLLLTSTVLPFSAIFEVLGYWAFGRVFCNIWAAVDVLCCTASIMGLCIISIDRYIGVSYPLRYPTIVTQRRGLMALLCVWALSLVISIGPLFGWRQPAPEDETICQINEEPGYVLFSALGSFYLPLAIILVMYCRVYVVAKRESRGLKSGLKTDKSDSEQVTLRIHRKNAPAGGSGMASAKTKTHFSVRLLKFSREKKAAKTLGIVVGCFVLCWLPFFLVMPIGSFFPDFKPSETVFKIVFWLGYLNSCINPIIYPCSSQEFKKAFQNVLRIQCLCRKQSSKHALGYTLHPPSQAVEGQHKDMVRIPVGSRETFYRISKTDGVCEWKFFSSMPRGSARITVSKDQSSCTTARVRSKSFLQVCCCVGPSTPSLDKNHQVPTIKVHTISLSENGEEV
Method: cAMP assay: Cells expressing a single α1-adrenergic receptor subtype are washed and re-plated into 24-well plates in DMEM media without serum at approximately 2.4×10^4 cells/well. Cells are allowed to rest till the next day in a CO2 incubator at 37° C. The cells are washed twice with DMEM (no serum), then 1 ml of DMEM is added to each well. Cells are pre-incubated for 45 mins-1 hour at 37° C. in a CO2 incubator with 10 uM propranolol, followed by 100 uM IBMX for 30 minutes. Final DMSO concentration is at 0.05%. Norepinephrine or epinephrine is added in a dose response (1 dose per well) in addition to one of the Compounds 1-10 at one concentration (i.e. 10^−5M). Cells are incubated for another 30 mins at 37° C. in a CO2 incubator. The reaction is concluded by aspirating the media and adding 0.1M HCL. The mixture is incubated for 20 mins at room temperature. The cells are scraped and suspended until homogenous. The mixture is centrifuged at 1000 g for 10 mins and the supernatant assayed the same day according to a manufacturer's cAMP kit (Cayman Select Cyclic AMP EIA kit #501040).
In this assay, the concentration of norepinephrine is held constant at its Emax (10^−4M) (FIG. 10, red line). Compound 3 is then added in a dose-response (FIG. 10, blue line). Any signal above the red line is potentiation. […]

[3] = molecular target: T2, α1D-AR (Homo sapiens, UniProt P25100); experiment: Effect of compound on binding affinity of norepinephrine at α1D-AR; conditions: 10^−5M
T2 construct: expressed in transfected cells; host or cells: Rat-1 fibroblast cells
T2 sequence (P25100 1-572): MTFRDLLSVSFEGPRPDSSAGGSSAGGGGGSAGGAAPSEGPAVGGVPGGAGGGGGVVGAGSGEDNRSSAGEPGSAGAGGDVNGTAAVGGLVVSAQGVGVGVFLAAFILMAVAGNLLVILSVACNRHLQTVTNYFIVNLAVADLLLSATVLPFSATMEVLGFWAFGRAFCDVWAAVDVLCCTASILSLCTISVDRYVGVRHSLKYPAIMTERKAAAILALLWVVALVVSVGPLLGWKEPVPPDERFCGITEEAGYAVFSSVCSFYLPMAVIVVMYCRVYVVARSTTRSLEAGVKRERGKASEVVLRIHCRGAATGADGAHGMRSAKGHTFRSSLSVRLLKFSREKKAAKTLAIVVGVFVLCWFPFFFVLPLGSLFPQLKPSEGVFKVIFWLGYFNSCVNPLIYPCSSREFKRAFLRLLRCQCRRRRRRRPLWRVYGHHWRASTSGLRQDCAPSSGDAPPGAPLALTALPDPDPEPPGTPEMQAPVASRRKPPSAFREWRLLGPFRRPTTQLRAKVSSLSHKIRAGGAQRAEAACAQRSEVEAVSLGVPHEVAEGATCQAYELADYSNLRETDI
Method: Competition binding assays: These compounds were characterized for their ligand binding properties at the α1-AR subtypes. The binding affinities of Compounds 1-10 were determined in a series of competition-binding experiments with the α1-AR-selective antagonist [^125I]HEAT as the radioligand. Assays were performed in duplicate in HEM buffer, in a total assay volume of 1000 μl. Radioligand binding assays are composed of 5 ug of membranes, harvested from Rat-1 fibroblast cells expressing only one of the alpha1-AR subtypes, HEM buffer containing GTP (composed of 20 mM HEPES, pH 7.4, 1.4 mM EGTA, 12.5 mM MgCl2, pH to 7.4), 0.5 mM GTP, 35-80 pM^125I-HEAT, and various doses of norepinephrine or epinephrine and incubated with shaking at 25° C. for 1-2 hours. The above conditions will convert all the conformations of the receptor into a single low affinity site. To show both high and low affinity sites of the receptor (typically seen with GPCR agonists), the GTP is removed from the binding buffer. Nonspecific binding was determined experimentally in the presence of 10^−4 M phentolamine. Unbound radioactivity was separated from membrane-bound radioactivity by filtration through Whatman GF/C filter paper. […] Bound radioactivity remaining on the filters was counted on an ICN gamma counter operating at 79.8% efficiency. Data are analyzed using Graphpad Prism. […]

[4] = molecular target: T2, α1D-AR; experiment: Competition binding with [125I]HEAT at α1D-AR
Method: Competition binding assays: These compounds were characterized for their ligand binding properties at the α1-AR subtypes. The binding affinities of Compounds 1-10 were determined in a series of competition-binding experiments with the α1-AR-selective antagonist [^125I]HEAT as the radioligand. Assays were performed in duplicate in HEM buffer, in a total assay volume of 1000 μl. Radioligand binding assays are composed of 5 ug of membranes, harvested from Rat-1 fibroblast cells expressing only one of the alpha1-AR subtypes, HEM buffer containing GTP (composed of 20 mM HEPES, pH 7.4, 1.4 mM EGTA, 12.5 mM MgCl2, pH to 7.4), 0.5 mM GTP, 35-80 pM^125I-HEAT, and various doses of norepinephrine or epinephrine and incubated with shaking at 25° C. for 1-2 hours. The above conditions will convert all the conformations of the receptor into a single low affinity site. To show both high and low affinity sites of the receptor (typically seen with GPCR agonists), the GTP is removed from the binding buffer. Nonspecific binding was determined experimentally in the presence of 10^−4 M phentolamine. Unbound radioactivity was separated from membrane-bound radioactivity by filtration through Whatman GF/C filter paper. […] Bound radioactivity remaining on the filters was counted on an ICN gamma counter operating at 79.8% efficiency. Data are analyzed using Graphpad Prism.

SMILES: CC(C)Cc1c(OCC2=NCCN2)cccc1N(C)S(C)(=O)=O [Compound 3, N-[3-(4,5-Dihydro-1H-imidazol-2-ylmethoxy)-2-isobutyl-phenyl]-N-methyl-methanesulfonamide]
- blood pressure, treated vs placebo [1]: no changes in blood pressure
- Emax of PAM potentiation [2]: 35-60 % of the norepinephrine's maximum response
- effect on affinity of norepinephrine at the α1D-AR [3]: no effect; also recorded: does not increase the affinity of norepinephrine
- specific binding at the α1D-AR [4]: little, if any, specific binding; also recorded: no affinity
